Results taken from patent US20130317222A1, “SOLID FORMS OF GYRASE INHIBITOR (R)-1-ETHYL-3-[5-[2-(1-HYDROXY-1-METHYL-ETHYL)PYRIMIDIN-5-YL]-7-(TETRAHYDROFURAN-2-YL]-1H-BENZIMIDAZOL-2-YL]UREA” (Vertex Pharmaceuticals Incorporated, priority 2011, published 2013).
Where a name gives a salt, the structure may show the parent alone.

What was measured:
[1] = test system: Staphylococcus aureus; assay: MIC, micro dilution broth method (Protocol 1); type: cell-based
[2] = test system: Staphylococcus epidermidis; assay: MIC, micro dilution broth method (Protocol 1); type: cell-based; conditions: Staphlococcus epidermidis, 35 isolates tested
[3] = test system: Enterococcus faecalis; assay: MIC, micro dilution broth method (Protocol 1); type: cell-based
[4] = test system: Enterococcus faecium; assay: MIC, micro dilution broth method (Protocol 1); type: cell-based
[5] = test system: Streptococcus pneumoniae; assay: MIC, micro dilution broth method (Protocol 1); type: cell-based
[6] = test system: β-haemolytic streptococci (Groups A, B, C and G); assay: MIC, micro dilution broth method (Protocol 1); type: cell-based; conditions: 28 isolates tested
[7] = test system: Bacillus cereus; assay: MIC, micro dilution broth method (Protocol 1); type: cell-based
[8] = test system: Bacillus subtilis; assay: MIC, micro dilution broth method (Protocol 1); type: cell-based
[9] = test system: Haemophilus influenzae; assay: MIC against Gram negatives, microdilution broth method (Protocol 2); type: cell-based
Text: The specific protocols used were as follows:
Drug Dilutions, Inoculation, MIC Determination: • 1. […] All MICs were done in duplicate. • 6.

[10] = test system: Clostridium difficile; assay: MIC, agar dilution method (Protocol 3); type: cell-based
[11] = test system: Clostridium perfringens; assay: microbe, parasite or virus in culture; type: cell-based
[12] = test system: Bacteroides fragilis; assay: MIC, agar dilution method (Protocol 3); type: cell-based; conditions: 25 isolates tested
[13] = test system: Bacteroides and Parabacter spp.; assay: MIC, agar dilution method (Protocol 3); type: cell-based; conditions: 26 isolates tested
[14] = test system: Fusobacterium spp.; assay: MIC, agar dilution method (Protocol 3); type: cell-based; conditions: 16 isolates tested
[15] = test system: Peptostreptococcus spp.; assay: MIC, agar dilution method (Protocol 3); type: cell-based; conditions: 11 isolates tested
[16] = test system: Prevotella spp.; assay: MIC, agar dilution method (Protocol 3); type: cell-based; conditions: 13 isolates tested
[17] = test system: Neisseria gonorrhoeae; assay: MIC, agar dilution method (Protocol 3); type: cell-based
Description: (§1) Plate Pouring: • 1. Prepared 100× drug stocks of each test compound as described in Table 1A. Used a 15 mL centrifuge tube, added 100 uL of each drug stock to 10 mL of molten agar (cooled to 55° C. in water bath). Mixed by inverting tube 2-3× then pour into individually labeled 60×15 mm Petri dish. • 2. […] Poured 4 drug free plates: 2 as positive control, 2 as aerobic control. • 4. Allowed plates to dry. Used same day or stored overnight at RT or stored up to 3 days at 4° C. • 5. Plates were labeled accordingly for drug concentration and strain placement. Plate Inoculation (Performed in Biosafety Cabinet): • 1. Streaked each strain onto individual agar plates as described above. Incubated for required time and environmental condition (i.e. anaerobic, microaerophilic, etc). • 2. Used direct colony suspension method to suspend loopfuls of freshly streaked cells into 4 mL 0.9% […] and vortexed. • 3. Adjusted suspension to O.D.600 0.05 (5×10e7 cfu/mL). Vortexed to mix. • 4. Transferred 0.2 mL of adjusted, mixed cultures to a 96 well plate. When ≦5 strains were tested, all strains were lined together in a single row. When testing >5 strains, transfered strains into plate with no more that 5 strains in a single row. This was necessary to fit on the small plates. • 5. […] The former and latter served as growth and inoculation controls. Incubated one plate from each set of drug-free controls under required atmospheric conditions with MIC plates and one set aerobically to test for contamination with aerobic bacteria. Aerobic culture was negative for growth when working with strict anaerobe or microaerophilic strain. Some growth was visible with N. gonorrhoeae. • 6. Allowed inoculum to dry (for as short a time as necessary), then placed upside down in GasPak with appropriate number of sachets and incubate. • 7. Neisseria spp. were incubated at 37° C. in a5% CO2 environment for 24 h. MIC Determination: Examined the test plates after the correct incubation time and read the MIC endpoint at the concentration where a marked reduction occurred in the appearance of growth on the test plate as compared to that of growth on the positive control plates. [table]

[18] = test system: Neisseria meningitidis; assay: MIC, agar dilution method (Protocol 3); type: cell-based; conditions: 12 isolates tested
Description: as §1

[19] = test system: Mycobacterium avium; assay: MIC determination procedure for Mycobacterium species (Protocol 4); type: cell-based
[20] = test system: Nocardia caviae; assay: as above; type: cell-based; conditions: Nocardia caviae 2497
[21] = test system: N. asteroids; assay: as above; type: cell-based; conditions: N. asteroids 2039
[22] = test system: N. nova; assay: as above; type: cell-based; conditions: N. nova 10
[23] = test system: M. tuberculosis; assay: as above; type: cell-based
[24] = test system: Mycobacterium tuberculosis; assay: Mycobacterium tuberculosis Serum Shift MIC Assay (Protocol 5); type: cell-based
Text: Protocol #5. Protocol for Mycobacterium tuberculosis Serum Shift MIC Assay
Media Prep: • 1. […] It was important that all media and supplements were sterilized prior to MICs. • 2. Prepared all media below and inoculated as described in next section. Tested all compounds against Mtb using each media. • a. 7H9+0.2% glycerol+10% OADC (“standard” MIC media). • b. 7H9+0.2% glycerol+2 g/L dextrose+0.85 g/L NaCl+0.003 g/L catalase (0% FBS). • c. 2×7H9+0.2% glycerol+2 g/L dextrose+0.85 g/L NaCl+0.003 g/L catalase combined with equal volume Fetal Bovine Serum (50% FBS).
Inoculum Prep: • 1. […] Typically plates were two to three weeks of age when used for this assay due to the slow growth of this organism in culture. • 2. Vortexed well, then sonicated in water bath for 30 sec providing a suspension of ˜10^8 cells/ml. […] Prepared inoculum in each of the three media formulations by diluting the BBL Prompt suspension 1/200 (for example: transferred 0.2 ml of cells to 40 ml of medium) to obtain a starting cell density of ˜10^6 cells/ml. • 4.
Drug Dilutions, Inoculation, MIC Determination: • 1. […]
After 24 hours the fluorescence of each well was measured at Excitation 492 nm, Emission 595 nm.
Percent inhibition by a given compound was calculated as follows: Percent inhibition=100−([well fluorescence-average background fluorescence]/[DMSO control−average background fluorescence]×100).

[25] = test system: Moraxella catarrhalis; assay: MIC against Gram negatives, microdilution broth method (Protocol 2)
[26] = test system: Escherichia coli; assay: as above
[27] = test system: Klebsiella pneumoniae; assay: as above
[28] = test system: Acinetobacter baumannii; assay: as above
[29] = test system: Pseudomonas aeruginosa; assay: as above
[30] = test system: Proteus mirabilis; assay: as above
[31] = test system: Enterobacter cloacae; assay: as above
[32] = Staphylococcus aureus, 67 isolates tested
[33] = Enterococcus faecalis, 34 isolates tested
[34] = Streptococcus pneumoniae, 67 isolates tested
[35] = Haemophilus influenzae, 55 isolates tested
[36] = Neisseria gonorrhoeae, 13 isolates tested
[37] = M. tuberculosis Erdman ATCC 35801

Question: What does the source list for `CCNC(=O)Nc1nc2cc(-c3cnc(C(C)(C)O)nc3)cc([C@H]3CCCO3)c2[nH]1` [Compound 13, methanesulfonic acid salt of 1-ethyl-3-[5-[2-(1-hydroxy-1-methyl-ethyl)pyrimidin-5-yl]-7-[(2R)-tetrahydrofuran-2-yl]-1H-benzimidazol-2-yl]urea]?
Answer: MIC ([1]; Staphylococcus aureus ATCC 29213): 0.13 µg/mL; MIC ([1]; Staphylococcus aureus ATCC 29213 GyrB T173I): 1.29 µg/mL; MIC ([1]; Staphylococcus aureus ATCC 29213 with Human Serum): 0.31 µg/mL; MIC ([1]; Staphylococcus aureus ATCC 29213 with Mouse Serum): 2 µg/mL; MIC ([1]; Staphylococcus aureus ATCC 29213 with Rat Serum): 0.53 µg/mL; MIC90 [1, 32]: 0.25 µg/mL; MIC Range [1, 32]: 0.03 to 0.5 µg/mL; MIC Range [2]: 0.03 to 0.25 µg/mL; MIC90 ([2]; Staphylococcus epidermidis): 0.12 µg/mL; MIC ([3]; Enterococcus faecalis ATCC 29212, with Laked Horse Blood): 0.081 µg/mL; MIC90 [3, 33]: 0.25 µg/mL; MIC Range [3, 33]: 0.03 to 0.25 µg/mL; MIC90 ([4]; Enterococcus faecium): 0.5 µg/mL; MIC ([4]; Enterococcus faecium ATCC 49624, Protocol 1): 0.25 µg/mL; MIC ([4]; Enterococcus faecium ATCC 49624 with Laked Horse Blood, Protocol 1): 0.39 µg/mL; MIC Range ([4]; Enterococcus faecium, 33 isolates tested, Protocol 1): 0.12 to 0.5 µg/mL; MIC ([5]; Streptococcus pneumoniae ATCC 10015, with Laked Horse Blood): 0.022 µg/mL; MIC90 [5, 34]: 0.06 µg/mL; MIC Range [5, 34]: 0.015 to 0.06 µg/mL; MIC90 [6]: 0.25 µg/mL; MIC Range [6]: 0.06 to 0.5 µg/mL; MIC ([7]; Bacillus cereus ATCC 10987): 0.5 µg/mL; MIC ([7]; Bacillus cereus ATCC 14579): 0.5 µg/mL; MIC ([8]; Bacillus subtilis (168) ATCC 6051): > 8 µg/mL; MIC ([8]; Bacillus subtilis ATCC 6638): > 8 µg/mL; MIC ([9]; Haemophilus influenzae (Rd1 KW20) ATCC 51907): 2.5 µg/mL; MIC ([9]; Haemophilus influenzae ATCC 49247): 1 µg/mL; MIC ([9]; Haemophilus influenzae Rd0894 (AcrA-)): 0.14 µg/mL; MIC90 [9, 35]: 2 µg/mL; MIC Range [9, 35]: 0.25 to 8 µg/mL; MIC90 ([10]; Clostridioides difficile, Clostridium difficile, 16 isolates tested): 1 µg/mL; MIC ([10]; Clostridium difficile ATCC BAA-1382): 1 µg/mL; MIC Range ([10]; Clostridium difficile, 16 isolates tested): 0.5 to 16 µg/mL; MIC90 [11]: 0.5 µg/mL; MIC90 [12]: > 16 µg/mL; MIC90 [13]: > 16 µg/mL; MIC90 [14]: 2 µg/mL; MIC Range [14]: 1 to 4 µg/mL; MIC90 [15]: > 16 µg/mL; MIC90 [16]: > 16 µg/mL; MIC ([17]; Neisseria gonorrhoeae ATCC 35541): 1.3 µg/mL; MIC ([17]; Neisseria gonorrhoeae ATCC 49226): 2.3 µg/mL; MIC90 [17, 36]: 1 µg/mL; MIC Range [17, 36]: 0.5 to 1 µg/mL; MIC90 [18]: 0.12 µg/mL; MIC Range [18]: 0.015 to 0.25 µg/mL; MIC ([19]; M. avium 3404.4): 0.94 µg/mL; MIC ([19]; M. avium Far): 0.94 µg/mL; MIC ([19]; Mycobacterium avium 103): 0.47 µg/mL; MIC [20]: 2 µg/mL; MIC [21]: 8 µg/mL; MIC [22]: 8 µg/mL; MIC [23, 37]: 0.25 µg/mL; MIC ([23]; M. tuberculosis H37Rv ATCC 25618): 0.37 µg/mL; MIC [24, 37]: 0.045 µg/mL; MIC ([24]; M. tuberculosis Erdman ATCC 35801 with Mouse Serum): 2 µg/mL; MIC90 [25]: 0.12 µg/mL; MIC Range ([25]; 26 isolates tested, Protocol 2): 0.015 to 0.12 µg/mL; MIC90 [26]: > 8 µg/mL; MIC90 [27]: > 8 µg/mL; MIC90 [28]: > 8 µg/mL; MIC90 [29]: > 8 µg/mL; MIC90 [30]: > 8 µg/mL; MIC90 [31]: > 8 µg/mL
